We go through two molecules from patent publication US4971967A, “Quinolinecarboxylic acid derivatives, antibacterial compositions and use” (Kanebo Ltd, priority 1989, dated 1990).

SMILES strings stand for the structures. Converted amounts (≈) assume the structure as drawn. Like-named read-outs stand apart in the source and are kept apart here.

Test [1] concerns Pseudomonas aeruginosa E-2. The experiment in a line: Antibacterial activity (MIC), P. aeruginosa E-2. Type of test: cell-based. The note with it: E2; Pseudomonas aeruginosa E-2, Gram -; read-out: Minimum inhibitory concentration (MIC). In short, it runs like this:
(§1)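 Minimum inhibitory concentrations follow the procedure set by the Japan Society of Chemotherapy. Depending on the compound, the 5000 μg/ml stock is made in 0.1 N sodium hydroxide or sterilized water, and the working standard is 1000 μg/ml.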

In test [2] the test system is Staphylococcus aureus IID 803. The experiment in a line: Effect on treatment of general infectious disease, S. aureus IID 803 (Experiment 3). Type of test: in vivo, ddY male mice infected with Staphylococcus aureus. The note with it: IID803, 168 h, oral, 1 h after i.p. infection, 5.0×10^7 CFU/mouse, survival after one week. On the procedure:
Staphylococcus aureus IID 803 (5.0×10^7 CFU/mouse)
(§2) The test microorganisms were subjected to standing culture in Trypto-Soya Agar "Nissui" (made by Nissui Seiyaku K.K., Japan) at 37° C. for 16 to 18 hours. The culture was then diluted with PBS (Dulbecco's phosphate buffered saline) and mixed with an equivalent amount of 10% (w/v) Mucin (BACTO MUCIN BACTERIOLOGICAL, made by Difco Co.) to prepare a microorganism solution. The thus prepared microorganism solution (0.5 ml each) was intraperitoneally inoculated to ddY male mice (5 weeks age, weighing 25-28 g, 5 mice in each group), to infect the animals. One hour after the infection, the compound (A) or (J) of the present invention or the known compound (X) suspended in 1% (w/v) aqueous gum arabic or the known compound (Y) dissolved in sterilized distilled water was orally adiministered to mice.
(§3) The mice were daily observed for one week, and from the survival number of mice after one week, the 50% effective dose (ED50) was calculated by Weil method.

The subject of test [3] is Klebsiella pneumoniae PCI-602. The test is described as follows: Antibacterial activity (MIC), Klebsiella pneumoniae PCI-602. To be noted: PCI602; Klebsiella pneumoniae PCI-602, Gram -; read-out: Minimum inhibitory concentration (MIC). Type of test: cell-based. In a few lines: as §1
A further test concerns Enterobacter cloacae 963. The test is described as follows: Antibacterial activity (MIC), Enterobacter cloacae 963. Type of test: cell-based. To be noted: Enterobacter cloacae, 963, Enterobacter cloacae 963, Gram -; read-out: Minimum inhibitory concentration (MIC). In short, it runs like this: as §1
For test [4], the system named is Staphylococcus aureus IID 803. The test is described as follows: Antibacterial activity (MIC), S. aureus IID 803. Type of test: cell-based. In a few lines: as §1
Test [5] concerns Pseudomonas aeruginosa E-2. The experiment in a line: Effect on treatment of general infectious disease, P. aeruginosa E-2 (Experiment 3). Type of test: in vivo, ddY male mice infected with Pseudomonas aeruginosa. To be noted: E2, 168 h, oral, 1 h after i.p. infection, 3.1×10^4 CFU/mouse, survival after one week. As to the method:
Pseudomonas aeruginosa E-2 (3.1×10^4 CFU/mouse)
as §2, §3

For test [6], the system named is clinically isolated methicillin resistant Staphylococcus aureus. The test is described as follows: MIC against clinically isolated methicillin resistant Staphylococcus aureus. Type of test: cell-based. The note with it: 54 strains; for MIC50: minimum concentration for inhibiting growth of the strains by 50%; for MIC90: minimum concentration for inhibiting growth of the strains by 90%. On the procedure: The compounds (A) and (J) of the present invention and the known compound (X) were dissolved in 0.1 N aqueous sodium hydroxide, and the known compound (Y) in sterilized distilled water, to prepare a solution of 5000 μg/ml in concentration each. The above solutions were then diluted with sterilized distilled water to prepare a standard solution with a concentration of the test compound: 1000 μg/ml each. The test was carried out by a method appointed by Japan Society of Chemotherapy (ibidem) to measure minimum inhibitory concentration (MIC) against 54 strains of clinically isolated methicillin resistant Staphylococcus aureus, from which there were calculated a range of MIC (MICrange) of the test compound against these resistant strains, a minimum concentration for inhibiting the growth of the strains by 50% (MIC50) and a minimum concentration for inhibiting the growth of the strains by 90% (MIC90).

In another test the test system is infection. The test is described as follows: Protective effects against infection (Experiments 3 and 4). Type of test: in vivo, ddY male mice. To be noted: result in words. As to the method:
as §2, §3
The procedure of Experiment 3 was repeated except that ddY male mice weighing 24 to 28 g were employed.

Test [7] deals with Bacillus subtilis ATCC 6633. The experiment in a line: Antibacterial activity (MIC), Bacillus subtilis ATCC 6633. Type of test: cell-based. In a few lines:
as §1

Test [8] has as its system Citrobacter freundii NIHJ 10018-68. The test is described as follows: Antibacterial activity (MIC), Citrobacter freundii NIHJ 10018-68. Type of test: cell-based. The note with it: Citrobacter freundii, NIHJ10018, Citrobacter freundii NIHJ 10018-68, Gram -; read-out: Minimum inhibitory concentration (MIC). In a few lines: as §1
Test [9] concerns Pseudomonas aeruginosa IFO 3445. The test is described as follows: Antibacterial activity (MIC), P. aeruginosa IFO 3445. Type of test: cell-based. To be noted: Pseudomonas aeruginosa, IFO3445, Pseudomonas aeruginosa IFO 3445, Gram -; read-out: Minimum inhibitory concentration (MIC). In short, it runs like this:
as §1

The test system of test [10] is Serratia marcescens IAM 1184. The test is described as follows: Antibacterial activity (MIC), Serratia marcescens IAM 1184. Type of test: cell-based. To be noted: Serratia marcescens, IAM1184, Serratia marcescens IAM 1184, Gram -; read-out: Minimum inhibitory concentration (MIC). In short, it runs like this:
as §1

In test [11] the test system is Micrococcus luteus ATCC 9341. The test is described as follows: Antibacterial activity (MIC), Micrococcus luteus ATCC 9341. Type of test: cell-based. To be noted: ATCC9341; Micrococcus luteus ATCC 9341, Gram +; read-out: Minimum inhibitory concentration (MIC). In a few lines:
as §1

Test [12] concerns Pseudomonas aeruginosa NCTC 10490. The experiment in a line: Antibacterial activity (MIC), P. aeruginosa NCTC 10490. Type of test: cell-based. To be noted: Pseudomonas aeruginosa, NCTC10490, Pseudomonas aeruginosa NCTC 10490, Gram -; read-out: Minimum inhibitory concentration (MIC). In short, it runs like this: as §1
Test [13] has as its system Morganella morganii IFO 3848. The test is described as follows: Antibacterial activity (MIC), Morganella morganii IFO 3848. Type of test: cell-based. The note with it: Morganella morganii, IFO3848, Morganella morganii IFO 3848, Gram -; read-out: Minimum inhibitory concentration (MIC). In a few lines:
as §1

The subject of test [14] is Escherichia coli NIHJ JC-2. The experiment in a line: Antibacterial activity (MIC), E. coli NIHJ JC-2. Type of test: cell-based. To be noted: NIHJJC2; Escherichia coli NIHJ JC-2, Gram -; read-out: Minimum inhibitory concentration (MIC). In a few lines: as §1
Test [15] deals with Streptococcus faecalis IID 682. The test is described as follows: Antibacterial activity (MIC), Streptococcus faecalis IID 682. Type of test: cell-based. The note with it: Enterococcus faecalis, IID682, Streptococcus faecalis IID 682, Gram +; read-out: Minimum inhibitory concentration (MIC). In a few lines:
as §1

Test [16] deals with Enterobacter aerogenes ATCC 13048. The test is described as follows: Antibacterial activity (MIC), Enterobacter aerogenes ATCC 13048. Type of test: cell-based. To be noted: Klebsiella aerogenes, ATCC13048; Enterobacter aerogenes ATCC 13048, Gram -; read-out: Minimum inhibitory concentration (MIC). In a few lines: as §1

The term ED50 denotes the dose at which the effect has come halfway, by size or by number of responders. By MIC50 is commonly meant the lowest concentration that inhibits either 50% of growth or 50% of the strains tested, depending on the study. By MIC90 is commonly meant an inhibitory concentration at the 90% level, which refers to growth in some studies and to a panel of isolates in others. Read a low MIC90 as greater potency. As to `CN1CCN(c2c(F)cc3c(=O)c(C(=O)O)c4scc5n4c3c2N(C)C5)CC1` [Compound (A), 9,1-(Methylimino)methano-7-fluoro-8-(4-methyl-1-piperazinyl)-5-oxo-5H-thiazolo[3,2-a]quinoline-4-carboxylic acid], the MIC in [1] is 0.78 µg/mL (≈ 1.94 µM); in test [3], 6 ng/mL (≈ 0.0149 µM); with Enterobacter cloacae 963 it was 0.05 µg/mL (≈ 0.124 µM); in [4] (IID803, Staphylococcus aureus IID 803, Gram +, read-out: Minimum inhibitory concentration (MIC)) it was 0.05 µg/mL (≈ 0.124 µM); in test [6] it was 0.025 to 0.1 µg/mL (≈ 0.0621 to 0.248 µM); in [8] it was 0.2 µg/mL (≈ 0.497 µM). The MIC in test [9] came out at 0.39 µg/mL (≈ 0.969 µM); in test [10] it was 0.2 µg/mL (≈ 0.497 µM); in test [11], 0.39 µg/mL (≈ 0.969 µM); in [12] it was 0.2 µg/mL (≈ 0.497 µM); in test [13] it was 0.05 µg/mL (≈ 0.124 µM); in [14], 0.05 µg/mL (≈ 0.124 µM). The results for the MIC in [15] and in test [16] were 0.1 µg/mL (≈ 0.248 µM) and 0.05 µg/mL (≈ 0.124 µM), respectively. The ED50 was 5.8 mg/kg in [2] and 10.2 mg/kg in test [5]. The MIC50 in test [6] stood at 0.05 µg/mL (≈ 0.124 µM). In [6], this molecule returned an MIC90 of 0.1 µg/mL (≈ 0.248 µM). The “protective effects against infection” value in the test on infection was “excellent protective effects against infection”. Besides, in test [7] (Bacillus subtilis ATCC 6633, Gram +), the “Minimum inhibitory concentration (MIC)” value came out at 6 ng/mL.
As for `CCN1CCN(c2c(F)cc3c(=O)c(C(=O)O)c4scc5n4c3c2N(C)C5)CC1` [Compound (J), 9,1-(Methylimino)methano-7-fluoro-8-(4-ethyl-1-piperazinyl)-5-oxo-5H-thiazolo[3,2-a]quinoline-4-carboxylic acid], the MIC in test [1] is 0.78 µg/mL (≈ 1.87 µM); in test [3], 6 ng/mL (≈ 0.0144 µM); in the test on Enterobacter cloacae 963 it was 0.1 µg/mL (≈ 0.24 µM); in [4] (Staphylococcus aureus, IID803, read-out: Minimum inhibitory concentration (MIC)), 0.05 µg/mL (≈ 0.12 µM); in test [6], 0.025 to 0.1 µg/mL (≈ 0.06 to 0.24 µM); in test [7] (Bacillus subtilis, ATCC6633, Bacillus subtilis ATCC 6633, Gram +, read-out: Minimum inhibitory concentration (MIC)), 0.025 µg/mL (≈ 0.06 µM). In addition, the MIC in test [8] was found to be 0.39 µg/mL (≈ 0.936 µM); in test [9], 0.78 µg/mL (≈ 1.87 µM); in test [10], 0.39 µg/mL (≈ 0.936 µM); in test [11] it was 0.39 µg/mL (≈ 0.936 µM); in test [12] it was 0.39 µg/mL (≈ 0.936 µM); in test [13], 0.1 µg/mL (≈ 0.24 µM). For the same molecule, the MIC in test [14], in test [15] and in [16] was 0.1 µg/mL (≈ 0.24 µM) each time. Also, the 50% effective dose (ED50) stood at 5.8 mg/kg in [2] and 6.8 mg/kg in test [5]. The same molecule had an MIC50 in test [6] of 0.05 µg/mL (≈ 0.12 µM). This molecule also displayed an MIC90 in [6] of 0.1 µg/mL (≈ 0.24 µM). The “protective effects against infection” value in the test on infection was “excellent protective effects against infection”.
